Assay results: publication PMC8811960, “A Novel 2-Carbon-Linked Dimeric Artemisinin With Potent Antileukemic Activity and Favorable Pharmacology” (Frontiers in Oncology, 2022)
Where two headings read alike, the source gives them in different places.

Columns and labels:
[1] = tested on: MOLM14, MV4;11, and HL60 human AML cells; set-up: method as in PMID 33560385; conditions: ART631 200 nM, VEN 50 nM, SOR 5 µM; MOLM14, MV4;11, HL60; cited from earlier work
K562 = assay: alamarBlue growth inhibition, K562; assay type: cell-based; conditions: Homo sapiens, K562, 48h, mean of 2 independent assays ± SD
Procedure: (§1) Cytotoxicity was assessed using alamarBlue assays (Life Technologies, Grand Island, NY) following manufacturer’s guidelines. Cell death was verified by Annexin V/7-aminoactinomycin D (7AAD) staining (BioLegend, San Diego, CA) per manufacturer’s guidelines.

HL60 = assay: alamarBlue growth inhibition, HL60; assay type: cell-based; conditions: Homo sapiens, HL-60, HL60, 48h, mean of 2 independent assays ± SD
Procedure: as §1

TF1 = assay: alamarBlue growth inhibition, TF1; assay type: cell-based; conditions: Homo sapiens, TF-1, TF1, 48h, mean of 2 independent assays ± SD
Procedure: as §1

U937 = assay: alamarBlue growth inhibition, U937; assay type: cell-based; conditions: Homo sapiens, U-937, U937, 48h, mean of 2 independent assays ± SD
Procedure: as §1

23 leukemia cell lines = conditions: against 23 leukemia cell lines; cited from earlier work
DDIT3 = assay: qRT-PCR for DDIT3 mRNA; assay type: cell-based, human; conditions: MOLM14, 18h, ART631 200 nM, ART838 200 nM, AS 10 uM, similar results in MV4;11 and ML2
Procedure: Cells were pre-treated with […] ROS detection reagent 5-(and 6-)-chloromethyl-2’,7’-dichlorodihydrofluorescein diacetate (CM-H2DCFDA, Life Technologies) for 30 min, followed by the iron chelator deferoxamine mesylate (DFO; 11 mM) for 60 min. Cells were then treated with ART631 (200 nM) or DMSO control for 18h, with subsequent analysis by flow cytometry. Western blotting and quantitative reverse transcription PCR (qRT-PCR) to assess for molecular markers of ROS-mediated apoptosis were performed as previously described ([20]).
Figure 4 ART631 elevated ROS and CHOP levels and reduced MCL1 expression in MOLM14 AML cells. (A) MOLM14 AML cells were pre-treated with ROS detection reagent CM-H2DCFDA ([…]) for 30 min, pre-treated with deferoxamine mesylate (DFO; 11 mM) for 60 min, and then treated with ART631 (200 nM) or DMSO control for 18h. They were then analyzed by flow cytometry. Graph represents %CM-H2DCFDA fluorescence compared to vehicle (DMSO) control treated cells. Error bars represent SD from 3 independent experiments. (B) MOLM14 AML cells were treated for 18h with vehicle, AS (10 uM), ART838 (200 nM), ART631 (200 nM), cytarabine (AraC; 150 nM), or SOR (5 uM). Protein was isolated and western blotted for MCL1, BCL2, CHOP, and β-actin. (C) MOLM14 cells were treated as in (B) for 18h, total RNA isolated, cDNA synthesized, and SYBR Green qRT-PCR performed in triplicates. Ct values were normalized to housekeeping gene GAPDH and fold change shown relative to vehicle (DMSO) control. Error bars represent SD from 3 independent experiments done in triplicate.

THP1 = assay: alamarBlue growth inhibition, THP1; assay type: cell-based; conditions: Homo sapiens, THP-1, THP1, 48h, mean of 2 independent assays ± SD
Procedure: as §1

AML45 PDX = tested on: AML45 PDX; set-up: method as in PMID 33560385; conditions: monotherapy; cited from earlier work
MOLM14 = assay: alamarBlue growth inhibition, MOLM14; assay type: cell-based; conditions: Homo sapiens
Procedure: as §1
In this experiment, provided to show the entire concentration:response range, MOLM14 AML cells were cultured with a range of concentrations of artesunate (AS), ART838, ART631, and ART576 for 48h. Graph indicates growth inhibition relative to vehicle (DMSO)-treated controls by alamarBlue absorbance assays. Data points and error bars represent mean and SD of 3 independent experiments done in triplicate.

10 human AML cell lines = assay: alamarBlue growth inhibition, panel of 10 human AML cell lines; assay type: cell-based
Procedure: as §1
Cell lines with adverse risk cytogenetic and molecular features, e.g. MLL rearrangements (ML2, MOLM14, MV4;11, THP1), FLT3-ITD (MOLM14, MV4;11), TP53 mutations (KG1a, ML2, THP1, U937), and NRAS/KRAS mutations (ML2, THP1), were among those exquisitely sensitive to ART631, with IC50s < 50 nM. The K562 cell line was the only exception, as it was resistant to all 3 of these ARTs. Based on this in vitro activity data combined with the drug stability data described below, ART631 was prioritized over ART576 for further in vitro and in vivo antileukemic efficacy experiments here ( Table 2 ).

MV4;11 = assay: alamarBlue growth inhibition, MV4;11; assay type: cell-based; conditions: Homo sapiens, MV4;11, 48h, mean of 2 independent assays ± SD
Procedure: as §1

[2] = as previously reported; cited from earlier work
KG1a = assay: alamarBlue growth inhibition, KG1a; assay type: cell-based; conditions: Homo sapiens, KG-1a, 48h, mean of 2 independent assays ± SD
Procedure: as §1

ML2 = assay: alamarBlue growth inhibition, ML2; assay type: cell-based; conditions: Homo sapiens, ML-2, ML2, 48h, mean of 2 independent assays ± SD
Procedure: as §1

[3] = x5; cited from earlier work
HEL = assay: alamarBlue growth inhibition, HEL; assay type: cell-based; conditions: Homo sapiens, 48h, mean of 2 independent assays ± SD
Procedure: as §1

Question: Which “cell death as single agents” value [1] does the source give for `CNC(=O)c1cc(Oc2ccc(NC(=O)Nc3ccc(Cl)c(C(F)(F)F)c3)cc2)ccn1` [SOR, sorafenib] here?
Answer: less than 15%

Question: Which “cell death as single agents” value [1] does the source give for `CC1(C)CCC(CN2CCN(c3ccc(C(=O)NS(=O)(=O)c4ccc(NCC5CCOCC5)c([N+](=O)[O-])c4)c(Oc4cnc5[nH]ccc5c4)c3)CC2)=C(c2ccc(Cl)cc2)C1` [VEN, venetoclax] here?
Answer: less than 15%

Question: Which results are given for `C[C@@H]1CCC2[C@@H](C)[C@@H](CC(COP(=O)(Oc3ccccc3)Oc3ccccc3)C[C@H]3O[C@@H]4O[C@@]5(C)CCC6[C@H](C)CCC([C@H]3C)[C@]64OO5)O[C@@H]3O[C@@]4(C)CCC1[C@@]23OO4` (stereo partly drawn) [ART838, reference compound]?
Answer: IC50 (K562): > 1 µM; IC50 (HL60): 0.045 ± 0.003 µM; IC50 (TF1): 0.036 ± 0.003 µM; IC50 (U937): 0.022 ± 0.003 µM; fold more potent than artesunate (AS) (23 leukemia cell lines): 88 fold; DDIT3 mRNA (DDIT3): increased; IC50 (THP1): 0.045 ± 0.003 µM; survival versus vehicle (AML45 PDX): did not reach statistical significance; IC50 (MOLM14; MOLM-14, 48 h): 0.028 ± 0.003 µM; IC50 (10 human AML cell lines; Homo sapiens, read-out: IC50 range): 0.022 to 0.112 µM; number of human AML cell lines whose growth was inhibited (10 human AML cell lines; of 10 human AML cell lines tested): 9; IC50 (MV4;11): 0.028 ± 0.001 µM; degradation (stability) [2]: ≤ 20%; IC50 (KG1a): 0.112 ± 0.007 µM; IC50 (ML2): 0.04 ± 0.005 µM; multiple day MTD regimen [3]: 50 mg/kg/day; IC50 (HEL): 0.072 ± 0.006 µM

Question: Which IC50 (K562) does the source give for `C[C@H]1[C@H](OC(=O)CCC(=O)O)O[C@@H]2O[C@@]3(C)CC[C@H]4[C@H](C)CC[C@@H]1[C@@]24OO3` [AS, artesunate, reference compound] here?
Answer: > 10 µM

Question: What about the IC50 (HL60) of the same compound?
Answer: 1.06 ± 0.083 µM

Question: And the IC50 (TF1)?
Answer: 1.72 ± 0.302 µM

Question: And the IC50 (U937)?
Answer: 0.521 ± 0.096 µM

Question: What about the “DDIT3 mRNA” value (DDIT3) of the same compound?
Answer: increased

Question: And the IC50 (THP1)?
Answer: > 10 µM

Question: And the IC50 (MOLM14; MOLM-14, MOLM14, 48h, alamarBlue, mean of 2 independent assays ± SD, read-out: IC50)?
Answer: 0.89 ± 0.099 µM

Question: What about the IC50 (MV4;11) of the same compound?
Answer: 0.61 ± 0.03 µM

Question: What about the IC50 (KG1a) of the same compound?
Answer: 2.6 ± 0.458 µM

Question: What about the IC50 (ML2) of the same compound?
Answer: 1.58 ± 0.094 µM

Question: What about the IC50 (HEL) of the same compound?
Answer: 1.11 ± 0.093 µM
